The values that follow come from patent publication US20260226128A1, “Capped Peptides and Methods for Using the Same” (The Board of Trustees of the Leland Stanford Junior …, priority 2023, published 2026).

Data set [1] has as its system diet induced obese mice. Description: Oxygen consumption after single CAP-TAC1 injection, metabolic chambers. The class given is in vivo, mouse. To be noted: single injection at T=0, 10 mg/kg (FIG. 11 legend), over 24 hours. The protocol: FIG. 11. CAP-TAC1 acutely induces oxygen consumption over 24 hours. Oxygen consumption (VO2) of diet induced obese mice injected with a single injection at T=0 vehicle (18:1:1 Saline: DMSO: Kolliphor EL) or 10 mg/kg CAP-TAC1 (pGlu-FFGLM-NH2). (N=4 for vehicle and CAP-TAC1 groups, error bars are SEM, and P values calculated with two-way ANOVA.)
Metabolic chamber studies. For acute energy expenditure studies, food intake, RER, movement, VO2, and VCO2 were collected with CLAMS Oxymax Metabolic Cages. Mice were placed individual metabolic cages for 24 hours prior to experiment. For CAP-GDF15 experiments, mice were injected with either vehicle, 50 mg/kg CAP-GDF15, or 50 mg/kg scrambled CAP-GDF15 at 5 μm at T=0. For CAP-TAC1 experiments, mice were injected with either vehicle (18:1:1 Saline: DMSO: Kolliphor EL) or […] CAP-TAC1 (pGlu-FFGLM-NH2) at ~12 μm (T=0). Food intake, RER, movement, VO2, and VCO2 were collected every 7 minutes for […] immediately after injection. All experiments were done with 3-5 month old DIO mice (Jackson, stock 380050), fed high fat diet ad libitum.

In data set [2] the test system is diet induced obese mice. Description: Daily CAP-TAC1 treatment of diet induced obese mice with pair fed group. In kind it is in vivo, mouse. The settings on record: 10 mg/kg daily. The protocol: FIG. 10. […] (A) Body weight change and (B) food intake of diet induced obese mice injected with vehicle (18:1:1 Saline: DMSO: Kolliphor EL), 10 mg/kg CAP-TAC1 (pGlu-FFGLM-NH2), and vehicle pair fed to CAP-TAC1 group. (N=6 for vehicle, N=7 for CAP-TAC1 and pair fed groups, error bars are SEM, and P values calculated with two-way ANOVA.)
CAP-TAC1 treatments in mice. Injected diet induced obese (on high fat diet, 4 months old, male, C57BL/6J, Jackson cat #380050) mice daily with vehicle (18:1:1 Saline: DMSO: Kolliphor EL) or 10 mg/kg CAP-TAC1 (pGlu-FFGLM-NH2). The pair fed group was started one day later and fed the same food the CAP-TAC1 mice ate daily. Mice were singly housed and injected daily ~12 μm. Mouse body weights and food weights were measured at the same time. (N=6 for vehicle, N=7 for CAP-TAC1 and pair fed groups.)

Data set [3] deals with T1, human TACR1 (Homo sapiens, UniProt P25103).
T1 construct: host or cells: PathHunter beta-arrestin CHO-K1 cells
Description: human TACR1-beta arrestin recruitment assay (PathHunter beta-arrestin CHO-K1 cells). In kind it is cell-based. The settings on record: human TACR1-transfected PathHunter beta-arrestin CHO-K1 cells. From the text:
(§1) FIG. 4. […] (A) Schematic and annotation of the primary amino acid sequence for full-length mouse TAC1 preproprotein and its cleavage products. […] For (B), N=2 per concentration; for (C), N=3 per condition. For (B,C), data are shown as means±SEM. * P<0.05, ** P<0.01 versus control by Student's t-test.
A general note: Activated receptors often draw arrestin, which recruitment assays turn into a signal.

Data set [4] is described as follows: Half-life of peptides incubated in mouse plasma, levels by LC-MS. The protocol:
as §1
Half-life calculations of CAP-TAC1 in plasma. 10 µM of either synthetic CAP-TAC1 or SP was incubated with 100 μl of mouse plasma. Samples were incubated at 37° C. for 0, 10, 30, 60, or 90 minutes (N=3 for each time point). At the indicated time point, 1 μl of HALT protease inhibitor was immediately added, and plasma was boiled and prepared using the peptidomics workflow described above. […] Half-lives were calculated using an exponential decay fit.

Data set [5] concerns diet induced obese mice. Description: Food intake 2 hours post injection of CAP-GDF15 human homologue. The settings on record: 50 mg/kg, single injection, versus vehicle. The class given is in vivo, mouse. The protocol: FIG. 12. Human CAP-GDF15 homologue inhibits food intake. Food intake of diet induced obese mice 2 hours post injection with vehicle or 50 mg/kg CAP-GDF15 human homologue (pGlu-[…]-NH2). (N=8 mice/group, error bars are SEM, and P values calculated with two-sided Student's T test.)
Human CAP-GDF15 treatments in mice. Singly housed diet induced obese (on high fat diet, 4 months old, male, C57BL/6J, Jackson cat #380050) mice were injected with vehicle (18:1:1 Saline: DMSO: Kolliphor EL) or 50 mg/kg CAP-GDF15 human homologue (pGlu-[…]-NH2) once at ~5 μm. Food weight was measured before injection and 2 hours post to calculated food intake. (N=8 mice/group)

Where a SMILES comes first, the peptide text is derived from it.

What is called half-life is how long it takes for the measured level to halve.

T1 sequence (P25103 whole entry): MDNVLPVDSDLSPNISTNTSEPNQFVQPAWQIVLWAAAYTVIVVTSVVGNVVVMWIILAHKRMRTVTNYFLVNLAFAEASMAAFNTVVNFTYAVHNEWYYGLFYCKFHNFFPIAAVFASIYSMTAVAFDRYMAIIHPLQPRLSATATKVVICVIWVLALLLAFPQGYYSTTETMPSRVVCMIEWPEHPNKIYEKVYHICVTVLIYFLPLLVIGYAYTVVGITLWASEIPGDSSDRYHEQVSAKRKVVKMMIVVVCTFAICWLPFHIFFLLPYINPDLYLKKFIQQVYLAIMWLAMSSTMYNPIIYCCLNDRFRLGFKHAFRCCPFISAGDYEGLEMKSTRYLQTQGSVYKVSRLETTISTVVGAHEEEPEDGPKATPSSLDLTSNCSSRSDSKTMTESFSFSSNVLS

For the compound `CSCC[C@H](NC(=O)[C@H](CC(C)C)NC(=O)CNC(=O)[C@H](Cc1ccccc1)NC(=O)[C@H](Cc1ccccc1)NC(=O)[C@@H]1CCC(=O)N1)C(N)=O` [CAP-TAC1, pGlu-FFGLM-NH2] (HELM PEPTIDE1{[Glp].F.F.G.L.M.[am]}$$$$V2.0), the “oxygen consumption (VO2)” value in data set [1] was “induces an increase in oxygen consumption”. For the same compound, the food intake result in data set [2] (versus vehicle) was “independent of any changes of food intake”. The body weight change result in data set [2] (versus vehicle and pair fed group) was “induces body weight loss”. Moreover, the EC50 in data set [3] (read-out: ED50, agonism of TACR1) is 0.7 nM. Besides, the Emax in data set [3] (read-out: maximal activation, % of maximal response) is 96.6%. Moreover, the “peptide level in mouse plasma after 90 min” value in data set [4] is “still detectable”. In data set [4] (mouse, plasma), this compound returned a half-life at 10 µM of 14.4 min.
Consider “pGlu-LELHLRPQAAR-NH2 (HELM PEPTIDE1{[Glp].L.E.L.H.L.R.P.Q.A.A.R.[am]}$$$$V2.0; SMILES CC(C)C[C@H](NC(=O)[C@@H]1CCC(=O)N1)C(=O)N[C@@H](CCC(=O)O)C(=O)N[C@@H](CC(C)C)C(=O)N[C@@H](Cc1c[nH]cn1)C(=O)N[C@@H](CC(C)C)C(=O)N[C@@H](CCCNC(=N)N)C(=O)N1CCC[C@H]1C(=O)N[C@@H](CCC(N)=O)C(=O)N[C@@H](C)C(=O)N[C@@H](C)C(=O)N[C@@H](CCCNC(=N)N)C(N)=O) [human homologue of CAP-GDF15]”, for which, in data set [5], the “food intake 2 hours post injection” value was “acutely inhibits food intake”.
